From ChEMBL document CHEMBL1201862, “PubChem BioAssay data set” (2004) come the findings set out here.

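Following 48 hours of exposure in 96-well plates, responses at five concentrations were used to interpolate endpoints linearly. At the GI50, growth is halved.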 Activity calls are given as the source filed them. No stated cut-off is given here; in the data, active = GI50 up to about 1.1 µM and inactive = higher. Bridge positions count the residues as written; N and C are the ends. Square brackets hold non-standard residues; d marks the D form. Peptide text beside a SMILES is read from it. * marks the point of attachment. Cya = N[CH](CS(=O)(=O)O)C(=O)O; X49 = CC(C)CCCCCCCC(O)CC(=O)*; GABA = NCCCC(=O)O Bounds are passed on as bounds.

Some test systems named below: HOP-62; SF-268; CAKI-1; SK-MEL-5; Malme-3M; SF-539; LOX IMVI; BT-549; HL-60; SN12C; SNB-75; UACC-257; MDA-MB-231; MDA-MB-435; MCF7; SK-MEL-2; SNB-19; U-251; MDA-N; CCRF-CEM.
Common to all, as to test: NCI tumour cell line growth inhibition, 48 h

With `CCN1/C(=C/C#C/C(C)=C\c2sc3ccccc3[n+]2CC)Sc2ccccc21`, the GI50 in the assay with HOP-62 was 5.37 µM (inactive); in the assay with SF-268, 2.86 µM (inactive); in the assay with CAKI-1 it was 2.39 µM (inactive); in the assay with SK-MEL-5 it was 2.02 µM (inactive); with Malme-3M it was 1.11 µM (active); in the assay with SF-539, 2.9 µM (inactive). Moreover, the GI50 in the assay on LOX IMVI was 2.33 µM (inactive); with BT-549, 0.558 µM (active); with HL-60, 0.482 µM (active); with SN12C, 4.35 µM (inactive); with SNB-75, 1.53 µM (inactive); with UACC-257, 1.32 µM (inactive). Also, the GI50 in the assay on MDA-MB-231 is 4.42 µM (inactive); in the assay with MDA-MB-435, 2.36 µM (inactive); in the assay with MCF7, 4.05 µM (inactive); with SK-MEL-2 it was 2.44 µM (inactive); with SNB-19, 1.91 µM (inactive); with U-251, 0.948 µM (active). Besides, the GI50 in the assay with MDA-N was 2.9 µM (inactive).
`CCCCC1C(=O)N(c2ccc(S(=O)(=O)Nc3ccccn3)cc2)N(c2ccc(O)c(C(=O)O)c2)C1=O` (stereo not given): the GI50 with SF-268, in the assay on CAKI-1, in the assay with SK-MEL-5, in the assay on Malme-3M, in the assay with SF-539 and with LOX IMVI was > 100 µM (inactive) in each case. For the same compound, the GI50 in the assay with BT-549, in the assay with HL-60, with SN12C, with SNB-75, with UACC-257 and in the assay on MDA-MB-231 was > 100 µM (inactive) each time. In addition, the GI50 with MDA-MB-435, with MCF7, with SK-MEL-2, with SNB-19, with U-251 and in the assay on CCRF-CEM was > 100 µM (inactive) throughout. In the assay on MDA-N, the GI50 is > 100 µM (inactive).
For `CCOC(=O)c1csc(-c2cn(C)c3c2C(=O)C(OC)=CC3=O)n1`, the GI50 with HOP-62 was 23.2 µM (inactive); in the assay on SF-268 it was > 62.5 µM (inactive); with CAKI-1 it was > 91.2 µM (inactive); with SK-MEL-5, 3.91 µM (inactive); with SF-539, 27.6 µM (inactive); in the assay with LOX IMVI, 2.6 µM (inactive). For the same compound, the GI50 is > 40.3 µM (inactive) in the assay with BT-549; 13 µM (inactive) in the assay with HL-60; > 75.2 µM (inactive) with SN12C; 30.3 µM (inactive) with SNB-75; 21.6 µM (inactive) with UACC-257; 18.3 µM (inactive) in the assay with MDA-MB-231. Also, the GI50 in the assay on MDA-MB-435 is 3.27 µM (inactive); with MCF7 it was 7.6 µM (inactive); with SK-MEL-2 it was 21.7 µM (inactive); in the assay on SNB-19 it was 14.2 µM (inactive); in the assay with U-251, 15.4 µM (inactive); in the assay on CCRF-CEM, 72.8 µM (inactive). In addition, in the assay on MDA-N, the GI50 was 15.6 µM (inactive).
With `CC(C)CCCCCCCC(O)CC(=O)NC(CS(=O)(=O)O)C(=O)NC(CC(C)C)C(=O)NCCCC(=O)NC(Cc1c[nH]cn1)C(=O)NC(C)C(=O)NC1C(=O)NC(C(C)O)C(=O)NC(Cc2c[nH]cn2)C(=O)NC(C)C(=O)NC(C(C)O)C(=O)OC1C` (stereo not given) (X49-[Cya]L[GABA]HATTHAT; ester 6-C; configuration not given here), the GI50 in the assay with HOP-62, in the assay with CAKI-1, in the assay with SK-MEL-5, in the assay on Malme-3M, in the assay on SF-539 and with LOX IMVI was > 25 µM (inactive) throughout. For the same compound, the GI50 in the assay on BT-549, with HL-60, in the assay with SN12C, in the assay on SNB-75, with UACC-257 and with MDA-MB-231 was > 25 µM (inactive) throughout. Besides, the GI50 in the assay with MDA-MB-435, in the assay with MCF7, with SK-MEL-2, in the assay with SNB-19, in the assay on U-251 and in the assay on CCRF-CEM was > 25 µM (inactive) each time. Moreover, in the assay on MDA-N, the GI50 is > 25 µM (inactive).
In the case of `CC(C)=CCC/C(C)=C/Cc1cc(/C=C/c2cc(O)c(CC=C(C)C)c(O)c2)cc(O)c1O` [MAPPAIN], the GI50 in the assay on HOP-62 was 11.4 µM (inactive); with SF-268 it was 2.64 µM (inactive); in the assay on CAKI-1 it was 5.42 µM (inactive); with SK-MEL-5, 2.12 µM (inactive); in the assay on Malme-3M it was 6.38 µM (inactive); in the assay on SF-539, 3.79 µM (inactive). Moreover, the GI50 was 2.31 µM (inactive) in the assay with LOX IMVI; 3.29 µM (inactive) in the assay on BT-549; 0.502 µM (active) in the assay on HL-60; 1.95 µM (inactive) with SN12C; 2.58 µM (inactive) with SNB-75; 1.67 µM (inactive) with UACC-257. The GI50 in the assay on MDA-MB-231 was 11.2 µM (inactive); with MDA-MB-435, 2.55 µM (inactive); in the assay with MCF7, 3.45 µM (inactive); in the assay on SK-MEL-2, 2.77 µM (inactive); in the assay on SNB-19 it was 4.5 µM (inactive); in the assay on U-251, 2.18 µM (inactive). Moreover, the GI50 with MDA-N is 2.41 µM (inactive).
For `CC(Br)C(=O)c1ccc2cc(Br)c3ccccc3c2c1` (stereo not given), the GI50 in the assay on HOP-62 was 17.2 µM (inactive); in the assay with SF-268, 16.3 µM (inactive); with CAKI-1, 16.1 µM (inactive); with SK-MEL-5 it was 14 µM (inactive); in the assay on Malme-3M, 15.1 µM (inactive); with LOX IMVI it was 6.79 µM (inactive). Further, the GI50 in the assay with BT-549 is 15.1 µM (inactive); in the assay with HL-60 it was 12 µM (inactive); in the assay on SN12C, 7.01 µM (inactive); in the assay with SNB-75, 15.2 µM (inactive); in the assay on UACC-257 it was 16.9 µM (inactive); with MDA-MB-231 it was 16.3 µM (inactive). For the same compound, the GI50 with MDA-MB-435 is 14.5 µM (inactive); in the assay with MCF7, 14.9 µM (inactive); with SK-MEL-2, 13.2 µM (inactive); in the assay with SNB-19 it was 17.4 µM (inactive); in the assay on U-251 it was 13.7 µM (inactive); in the assay with CCRF-CEM, 2.45 µM (inactive). For the same compound, the GI50 in the assay on MDA-N was 12.9 µM (inactive).
Turning to `CCOC(=O)/C(C(=O)Nc1ccc(F)cc1)=C(/N)N1CCCC1`, the GI50 with HOP-62, with SF-268, with CAKI-1, in the assay on Malme-3M, in the assay on SF-539 and in the assay with LOX IMVI was > 100 µM (inactive) throughout. In addition, the GI50 with BT-549 was 92.9 µM (inactive); in the assay with HL-60 it was > 100 µM (inactive); in the assay on SN12C, > 100 µM (inactive); in the assay with SNB-75, > 100 µM (inactive); in the assay with UACC-257, > 100 µM (inactive); in the assay with MDA-MB-231 it was > 100 µM (inactive). Further, the GI50 in the assay on MDA-MB-435, in the assay with MCF7, with SK-MEL-2, with SNB-19, with U-251 and with CCRF-CEM was > 100 µM (inactive) each time. Also, the GI50 in the assay on MDA-N was > 100 µM (inactive).
With `O=C1CC(=O)N(C2CCCCC2)C(=O)N1c1ccccc1S(=O)(=O)Oc1ccccc1`, the GI50 in the assay with HOP-62 is 33 µM (inactive); in the assay with SF-268 it was 90.6 µM (inactive); with CAKI-1, > 100 µM (inactive); in the assay with SK-MEL-5, > 100 µM (inactive); in the assay on SF-539, > 100 µM (inactive); with LOX IMVI, 2.59 µM (inactive). In addition, the GI50 in the assay on BT-549 is 49.5 µM (inactive); with HL-60, > 100 µM (inactive); with SN12C, > 100 µM (inactive); in the assay with SNB-75 it was > 100 µM (inactive); with UACC-257, > 100 µM (inactive); in the assay with MDA-MB-231 it was > 100 µM (inactive). Further, the GI50 with MDA-MB-435 is > 100 µM (inactive); with MCF7, > 100 µM (inactive); with SK-MEL-2 it was > 100 µM (inactive); with SNB-19, > 100 µM (inactive); with U-251, > 100 µM (inactive); with CCRF-CEM, 14.9 µM (inactive). Besides, the GI50 with MDA-N was > 100 µM (inactive).
`Cn1c(-c2ccccc2)cc(-c2ccc3c(c2)OCO3)c1-c1ccsc1`: the GI50 in the assay with HOP-62, in the assay on SF-268, in the assay on CAKI-1, in the assay with SK-MEL-5, in the assay with SF-539 and with LOX IMVI was > 100 µM (inactive) in each case. Moreover, the GI50 in the assay on BT-549, in the assay with HL-60, in the assay with SN12C, in the assay with SNB-75, with UACC-257 and in the assay on MDA-MB-231 was > 100 µM (inactive) in each case. The GI50 in the assay with MDA-MB-435, with MCF7, with SK-MEL-2, with SNB-19, in the assay on U-251 and in the assay with CCRF-CEM was > 100 µM (inactive) in each case. Besides, the GI50 with MDA-N was > 100 µM (inactive).
In the case of `Cc1nc(O)nc(NNCc2ccc(Cl)cc2)c1C(=O)Nc1ccc(Cl)cc1`, the GI50 with HOP-62, in the assay with CAKI-1, in the assay on SK-MEL-5, with Malme-3M, in the assay on SF-539 and in the assay on LOX IMVI was > 100 µM (inactive) each time. Moreover, the GI50 in the assay with BT-549, in the assay with HL-60, in the assay on SN12C, in the assay on SNB-75, in the assay with UACC-257 and in the assay on MDA-MB-231 was > 100 µM (inactive) in each case. The GI50 with MDA-MB-435 is 88.1 µM (inactive); in the assay with MCF7 it was > 100 µM (inactive); in the assay on SK-MEL-2, > 100 µM (inactive); in the assay with SNB-19 it was > 100 µM (inactive); in the assay with U-251, > 100 µM (inactive); in the assay with CCRF-CEM it was > 100 µM (inactive). Further, the GI50 in the assay on MDA-N is 81.1 µM (inactive).
